Assay results as given in paper PMC5584254, “Identification of novel small molecule Beclin 1 mimetics activating autophagy” (Oncotarget, 2017).
Counter-ions that a name gives are not always drawn. Like-named read-outs stand apart in the source and are kept apart here.

Legend:
[1] = biological target: T1, Bcl-xL-Beclin 1 complex (Homo sapiens, UniProt Q07817); test: Concentration response FP reconfirmation of HTS hits; type: binding; details: for inhibition at 5 µM: read-out: Dose-response (% Inhibition) 5 μM; for inhibition at 10 µM: read-out: Dose-response (% Inhibition) 10 μM; for inhibition at 20 µM: read-out: Dose-response (% Inhibition) 20 μM; for inhibition at 40 µM: read-out: Dose-response (% Inhibition) 40 μM; for inhibition at 80 µM: read-out: Dose-response (% Inhibition) 80 μM; for inhibition at 160 µM: read-out: Dose-response (% Inhibition) 160 μM
T1 construct: made in house
Description: (§1) Then the plates were read by Envision (Perkin Elmer, Waltham, MA). […] The hits were selected from library stocks and reconfirmed in a concentration response FP assay (6 doses ranging from 5 μM to 160 μM or 8 doses ranging from 0.5 μM to 60 μM).

[2] = biological target: T1, Bcl-xL-Beclin 1 complex; test: FP-based high-throughput screening, primary screen; type: binding; details: first screen; 40 μM compound, 2.5 μM Bcl-xL, 400 nM 20-mer
Description: Next, we optimized the FP competitive binding assay in a 384-well microplate format and carried out a small-scale HTS using a small library, which contains 6580 compounds from Prestwick, Microsource and our in-house CMLD library. Then, the FP assay was optimized and applied in screening the larger Chembridge library consisting of 43736 compounds. HTS cascades are shown in Supplementary Figure 1A–1B. […] All chemical structures can be found on the PubChem website (http://pubchem.ncbi.nlm.nih.gov/).
as §1

T1 sequence (Q07817 whole entry, one chain of several): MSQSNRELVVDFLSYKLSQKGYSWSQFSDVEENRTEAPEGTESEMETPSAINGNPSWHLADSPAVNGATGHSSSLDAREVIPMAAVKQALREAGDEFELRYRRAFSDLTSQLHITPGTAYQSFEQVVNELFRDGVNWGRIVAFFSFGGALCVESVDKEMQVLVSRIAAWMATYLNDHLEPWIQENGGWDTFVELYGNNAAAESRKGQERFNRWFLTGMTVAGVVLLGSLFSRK

Row | SMILES | Primary Screen mP [2] [mP] | inhibition at 5 µM ([1]; 5 μM, hits of first screen) [%] | inhibition at 10 µM ([1]; 10 μM, hits of first screen) [%] | inhibition at 20 µM ([1]; 20 μM, hits of first screen) [%] | inhibition at 40 µM ([1]; 40 μM, hits of first screen) [%] | inhibition at 80 µM ([1]; 80 μM, hits of first screen) [%] | inhibition at 160 µM ([1]; 160 μM, hits of first screen) [%] | inhibition at 40 µM [2] [%] | other results
1 | C[n+]1c2cc(N)ccc2cc2ccc(N)cc21.[Cl-] [Compound A26, ACRIFLAVINIUM HYDROCHLORIDE] | -3.2 |  |  |  |  |  |  |  | Dose-response (% Inhibition) 5 μM ([1]; 5 μM, hits of first screen): 102.5%; Dose-response (% Inhibition) 10 μM ([1]; 10 μM, hits of first screen): 102.5%; Dose-response (% Inhibition) 20 μM ([1]; 20 μM, hits of first screen): 102.5%; Dose-response (% Inhibition) 40 μM ([1]; 40 μM, hits of first screen): 102.5%; Dose-response (% Inhibition) 80 μM ([1]; 80 μM, hits of first screen): 102.0%; Dose-response (% Inhibition) 160 μM ([1]; 160 μM, hits of first screen): 102.4%; Primary Screen % Inhibition [2]: 102.40%
2 | COc1cccc2c1C(=O)c1c(O)c3c(c(O)c1C2=O)C[C@@](O)(C(=O)CO)C[C@@H]3O[C@H]1C[C@H](N)[C@@H](O)[C@H](C)O1 [Compound A24, EPIRUBICIN HYDROCHLORIDE] | 136.0 | 6.8 | 11.3 | 16.2 | 23.1 | 34.4 | 40.9 | 22.8 | 
3 | COc1cccc2c1C(=O)c1c(O)c3c(c(O)c1C2=O)C[C@@](O)(C(C)=O)C[C@@H]3O[C@H]1C[C@H](N)[C@H](O)[C@H](C)O1 [Compound A36, DAUNORUBICIN] | 75.5 |  |  |  |  |  |  | 45.8 | inhibition at 5 µM [1]: 22.8%; inhibition at 10 µM [1]: 33.4%; inhibition at 20 µM [1]: 41%; inhibition at 40 µM [1]: 44.4%; inhibition at 80 µM [1]: 51.9%; inhibition at 160 µM [1]: 56%
4 | O=C1C=C2CC3(O)COc4cc(O)ccc4C3=C2C=C1O (stereo not shown) [Compound A01, BRAZILEIN] | 96.0 | 8 | 16.9 | 23 | 35.7 | 57.8 | 74.8 | 31 | 
5 | CCCCCCCCCCCCCCCCC(C(=O)O)C(O)(CC(=O)O)C(=O)O (stereo not shown) [Compound A19, AGARIC ACID] | 118.2 |  |  |  |  |  |  |  | Dose-response (% Inhibition) 5 μM ([1]; 5 μM, hits of first screen): 3.8%; Dose-response (% Inhibition) 10 μM ([1]; 10 μM, hits of first screen): 6.3%; Dose-response (% Inhibition) 20 μM ([1]; 20 μM, hits of first screen): 9.1%; Dose-response (% Inhibition) 40 μM ([1]; 40 μM, hits of first screen): 12.7%; Dose-response (% Inhibition) 80 μM ([1]; 80 μM, hits of first screen): 20.3%; Dose-response (% Inhibition) 160 μM ([1]; 160 μM, hits of first screen): 20.9%; Primary Screen % Inhibition [2]: 15.85%
6 | CC1=NCCc2c1[nH]c1cc(O)ccc21 [Compound A28, HARMALOL HYDROCHLORIDE] | 56.2 | 19.2 | 31.2 | 41.6 | 56.8 | 73 | 86.2 | 60 | 

Second part, led by results:

Row | Primary Screen mP [2] [mP] | inhibition at 5 µM ([1]; 5 μM, hits of first screen) [%] | inhibition at 10 µM ([1]; 10 μM, hits of first screen) [%] | inhibition at 20 µM ([1]; 20 μM, hits of first screen) [%] | inhibition at 40 µM ([1]; 40 μM, hits of first screen) [%] | inhibition at 80 µM ([1]; 80 μM, hits of first screen) [%] | inhibition at 160 µM ([1]; 160 μM, hits of first screen) [%] | inhibition at 40 µM [2] [%] | SMILES | other results
7 | 128.0 | -3.4 | 2.3 | 0.2 | -0.1 | -0.4 | 8.8 | 8.47 | COC(=O)Nc1nc2ccc(Sc3ccccc3)cc2[nH]1 [Compound A10, FENBENDAZOLE] | 
8 | 121.5 | -7.3 | -3.8 | -1 | 2.6 | 15.4 | 24.4 | 9.56 | CCCCC(CC)CCC(CC(C)C)OS(=O)(=O)O (stereo not shown) [Compound A06, SODIUM TETRADECYL SULFATE] | 
9 | 125.0 | 0.2 | 0.6 | 1 | 1.1 | 6.1 | 11.3 | 9.05 | CCc1oc2ccccc2c1C(=O)c1cc(Br)c(O)c(Br)c1 [Compound A20, BENZBROMARONE] | 
10 | 129.2 | 1.4 | 2.3 | 2 | 3.2 | 10.2 | 13.7 | 7.13 | CCCCCc1c2c(cc(O)c1C(=O)O)OC(=O)c1c(cc(OC)cc1C(=O)CCCC)O2 [Compound A04, LOBARIC ACID] | 
11 | -3.2 | 67.6 | 77.7 | 103 | 99.7 | 102 | 103 | 102 | Cc1cc2nc3c(=O)[nH]c(=O)nc-3n(C[C@H](O)[C@H](O)[C@H](O)CO)c2cc1C [Compound A31, RIBOFLAVIN] | 
